Measurements as given in patent publication US11382929B2, “Compositions and methods to treat disease” (REGENTS OF THE UNIVERSITY OF MINNESOTA, priority 2019, dated 2022).
“Also recorded” adds a separate entry of the source.

Tests used:
[1] = Particle size of complexes by dynamic light scattering; format: physicochemical; settings: complex of the anionic polymer with PAHM
Procedure: Heparin (sodium salt) was mixed with PAHM in 20 mM HEPES buffer (pH 7.4) and incubated for 30 minutes at room temperature. The charge ratio of heparin and PAHM was adjusted based on the assumption that one repeating unit of PAHM (Mw 325.88) bears 1 mole of positive charge (approximately the same number of primary amino groups) and that one repeating unit of heparin (Mw 1471) carries 8 moles of negative charges (approximately the number of carboxylate and sulfate groups combined). The final PAHM concentration was kept constant as 0.1 mg/mL. To determine the average particle size of the nano-complexes, the heparin/PAHM mixtures were diluted 20 times to a final volume of 2 mL in HEPES buffer. The average hydrodynamic diameter (or particle size) in HEPES buffer (20 mM) at 25° C. were determined using a ZetaPlus Particle Analyzer (Brookhaven Instruments Corporation, Holtsville, N.Y.; 27 mW laser; 658 nm incident beam, 90° scattering angle). Nano-complexes with heparin/PAHM charge ratios ranging from 1 to 32 were prepared as described above and measured by DLS.

erythrocytes (RBC) = assay: Hemolysis; format: cell-based, mouse; settings: complex of the anionic polymer with PAHM, data not shown
EMT-6 = assay: MTT cytotoxicity in 2D monolayer cell culture; format: cell-based; settings: Mus musculus, EMT6
Procedure: (§1) Cytotoxicity in 2D Monolayer Cell Culture A mouse breast cancer cell line EMT-6 (ATCC, Manassas, Va.), two human breast cancer cell lines MDA-MB-231(ATCC) and MCF-7(ATCC), and one human glioma cancer cell line T98G(ATCC) were used in standard MTT assays (T. Mosmann, J Immunol Methods 65(1-2) (1983) 55-63) to test the cytotoxicity of PAHM polymers with different molecular weight and concentration after 24 and 48 h of treatment. D ox-HCl was also tested for comparison. All of the four cancer cell lines were incubated in corresponding cell culture media, EMT-6 media (DMEM high glucose, 10% FBS, 100 U/mL penicillin/streptomycin), T98G and MDA-MB-231 media (DMEM low glucose, 10% FBS, 100 U/mL penicillin/streptomycin), MCF-7 media (DMEM low glucose, 10% FBS, insulin, 100 U/mL penicillin/streptomycin), at 37° C., and a humidified atmosphere containing 5% CO2.
(§2) The MTT assay of PAHM polymers and Dox-HCl on EMT-6 cells exemplified the general experimental procedures. EMT-6 cells were seeded into 96-well plates at 5000 cells/well and cultured for 20 h in EMT-6 media at 5% CO2 and 37° C. Afterwards polymers of various molecular weight and concentrations were added to the cells and cultured for 24 h or 48 h. MTT in PBS (5 mg/mL, 20 μL) was then added to each well, reaching a final concentration of 0.5 mg/mL. After 4 h, unreacted MTT was removed by aspiration. The formazan crystals were dissolved in 150 μL of DMSO, and the absorbance was measured at 570 nm using a Bio-Tek Synergy HT plate reader. Cell viability was calculated by [absorbance of cells exposed to polymers]/[absorbance of cells cultured without polymers] in percentage. Cell images were captured before MTT was added using an Olympus IX70 […] microscope under polarized light.

T98G = assay: MTT cytotoxicity in 2D monolayer cell culture; format: cell-based; settings: Homo sapiens, 24 h treatment
Procedure: as §1, §2

AsPC-1 cells = assay: PAHM+Dox cytotoxicity assay (MTT); format: cell-based, human; settings: AsPC-1, PAHM and Dox used in combination
Procedure: AsPC-1 or EMT6 cells were plated at 5000 cells/well (in 100 μL phenol red free medium) in 96-well plates. After culturing overnight (˜20 h), the medium was removed, and 100 μL medium containing various concentrations of PAHM and/or Dox was added to the cells. AsPC-1 cells were exposed to 1-100 μg/mL PAHM, 1-100 μg/mL Dox, or combinations of PAHM and Dox at a 1:1 ratio. EMT6 cells were exposed to 1-100 μg/mL PAHM, 0.02-2 μg/mL Dox, or combinations of PAHM and Dox at a 50:1 ratio. After 24 h exposure, the PAHM and Dox solutions were removed and 100 μL phenol red free medium was added to the cells. Cell viability was measured using an MTT assay. To each well, 10 μL MTT solution (12 mM in PBS) was added. After 4 h, 85 μL was removed from each well and formazan was solubilized in 100 μL dimethyl sulfoxide (DMSO). Absorbance was measured at 540 nm using a plate reader (BioTek™ Cytation™ 3 Cell Imaging Multi-Mode Reader controlled by Gen5™ All-In-One Microplate Reader Software). Data was analyzed in Microsoft Excel and Combination Indices and Dose Reduction Indices were calculated using CompuSyn (ComboSyn, Inc.)

EMT-6 tumors = assay: In vivo EMT-6 tumor model, anti-tumor effect; design: species or system Balb/C mice; settings: 8 mice per group, charge ratios 1, 4, 16 (low, med, high heparin dose) or equivalent heparin alone

hyaluronic acid [HA]
particles formed with PAHM (size) [1]: nano to micro scale
hemolytic activity of PAHM in complexed form (erythrocytes (RBC)): reduced, sometimes abolished

COc1cccc2c1C(=O)c1c(O)c3c(c(O)c1C2=O)C[C@@](O)(C(=O)CO)C[C@@H]3O[C@H]1C[C@H](N)[C@H](O)[C@H](C)O1 [Dox, doxorubicin]
IC50 (EMT-6; EMT-6, 24 h treatment): 10 to 15 µg/mL
IC50 (EMT-6; EMT-6, 48 h): 5 µg/mL
IC50 (T98G): > 40 µg/mL
Dose Reduction Index (DRI) (AsPC-1 cells): much higher; also recorded: All but one DRI values are above 1

heparin
tumor growth (tumor volume and weight) (EMT-6 tumors): modest but insignificant effect on tumor growth
